Experimental data taken from patent publication US9113629B2, “4-amino-6-(4-substituted-phenyl)-picolinates and 6-amino-2-(4-substituted-phenyl)-pyrimidine-4-carboxylates and their use as herbicides” (DOW AGROSCIENCES LLC, priority 2013, dated 2015).
Read-outs that look alike come from different tables or passages of the source.

Columns and labels:
[1] = tested on: Key Broadleaf Weed and Crop Species; experiment: Post-emergent Test II herbicidal activity (Table 5); format: in vivo; conditions: post-emergence, 336 h, 14 days after application; for pest or weed control at 70 g/ha: application rate 70 g ai/ha; for pest or weed control at 140 g/ha: application rate 140 g ai/ha
Summary of the method: (§1)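 Greenhouse post-emergent assay: seedlings (first/second true leaf) in Metro-Mix 360 were sprayed at 187 L/ha at a top rate plus twofold dilutions down to 1/16×; solvent-blank controls were included. Percent visual injury was read at 14 d.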

[2] = tested on: Key Grass and Sedge Weeds as well as Grass Crops; experiment: Post-emergent Test II herbicidal activity (Table 6); format: in vivo; conditions: post-emergence, 336 h; for pest or weed control at 70 g/ha: 70 g ai/ha; for pest or weed control at 140 g/ha: 140 g ai/ha
Summary of the method: as §1

[3] = ABUTH: velvetleaf (Abutilon theophrasti), read-out: Visual Growth Reduction (%) 14 Days After Application, ABUTH
[4] = AMARE: redroot pigweed (Amaranthus retroflexus), read-out: Visual Growth Reduction (%) 14 Days After Application, AMARE
[5] = BRSNN: oilseed-rape, canola (Brassica napus), read-out: Visual Growth Reduction (%) 14 Days After Application, BRSNN
[6] = CHEAL: lambsquarters (Chenopodium album), read-out: Visual Growth Reduction (%) 14 Days After Application, CHEAL
[7] = EPHHL: wild poinsettia (Euphorbia heterophylla), read-out: Visual Growth Reduction (%) 14 Days After Application, EPHHL
[8] = HELAN: sunflower (Helianthus annuus), read-out: Visual Growth Reduction (%) 14 Days After Application, HELAN
[9] = VIOTR: wild pansy (Viola tricolor), read-out: Visual Growth Reduction (%) 14 Days After Application, VIOTR
[10] = CYPES: yellow nutsedge (Cyperus esculentus), read-out: Visual Growth Reduction (%) 14 Days After Application, CYPES
[11] = DIGSA: crabgrass (Digitaria sanguinalis), read-out: Visual Growth Reduction (%) 14 Days After Application, DIGSA
[12] = ECHCG: barnyardgrass (Echinochloa crus-galli), read-out: Visual Growth Reduction (%) 14 Days After Application, ECHCG
[13] = ORYSA: rice (Oryza sativa), crop, read-out: Visual Growth Reduction (%) 14 Days After Application, ORYSA
[14] = SETFA: giant foxtail (Setaria faberi), read-out: Visual Growth Reduction (%) 14 Days After Application, SETFA
[15] = SORVU: grain sorghum (Sorghum vulgare), read-out: Visual Growth Reduction (%) 14 Days After Application, SORVU
[16] = TRZSS (wheat, Triticum aestivum), crop, read-out: Visual Growth Reduction (%) 14 Days After Application, TRZSS
[17] = ZEAMX: maize, corn (Zea mays), crop, read-out: Visual Growth Reduction (%) 14 Days After Application, ZEAMX

## COC(=O)c1nc(-c2ccc(Br)cc2)nc(N)c1OC [Compound 97]
[1]; [3]
  pest or weed control at 70 g/ha: 85 to 94%
  pest or weed control at 140 g/ha: 95 to 100%
[1]; [4]
  pest or weed control at 70 g/ha: 95 to 100%
  pest or weed control at 140 g/ha: 95 to 100%
[1]; [5]
  pest or weed control at 70 g/ha: 85 to 94%
  pest or weed control at 140 g/ha: 95 to 100%
[1]; [6]
  pest or weed control at 70 g/ha: 85 to 94%
  pest or weed control at 140 g/ha: 95 to 100%
[1]; [7]
  pest or weed control at 70 g/ha: 95 to 100%
  pest or weed control at 140 g/ha: 95 to 100%
[1]; [8]
  pest or weed control at 70 g/ha: 75 to 84%
  pest or weed control at 140 g/ha: 95 to 100%
[1]; [9]
  pest or weed control at 70 g/ha: 60 to 74%
  pest or weed control at 140 g/ha: 95 to 100%
[2]; [10]
  pest or weed control at 70 g/ha: 95 to 100%
  pest or weed control at 140 g/ha: 95 to 100%
[2]; [11]
  pest or weed control at 70 g/ha: 45 to 59%
  pest or weed control at 140 g/ha: 45 to 59%
[2]; [12]
  pest or weed control at 70 g/ha: 0 to 29%
  pest or weed control at 140 g/ha: 60 to 74%
[2]; [13]
  pest or weed control at 70 g/ha: 0 to 29%
  pest or weed control at 140 g/ha: 0 to 29%
[2]; [14]
  pest or weed control at 70 g/ha: 0 to 29%
  pest or weed control at 140 g/ha: 30 to 44%
[2]; [15]
  pest or weed control at 70 g/ha: 0 to 29%
  pest or weed control at 140 g/ha: 30 to 44%
[2]; [16]
  pest or weed control at 70 g/ha: 30 to 44%
  pest or weed control at 140 g/ha: 60 to 74%
[2]; [17]
  pest or weed control at 70 g/ha: 95 to 100%
  pest or weed control at 140 g/ha: 95 to 100%

## COC(=O)c1nc(-c2ccc(Br)cc2)cc(N)c1Cl [Compound 67]
[1]; [3]
  pest or weed control at 70 g/ha: 95 to 100%
  pest or weed control at 140 g/ha: 95 to 100%
[1]; [4]
  pest or weed control at 70 g/ha: 95 to 100%
  pest or weed control at 140 g/ha: 95 to 100%
[1]; [5]
  pest or weed control at 70 g/ha: 0 to 29%
  pest or weed control at 140 g/ha: 60 to 74%
[1]; [6]
  pest or weed control at 70 g/ha: 95 to 100%
  pest or weed control at 140 g/ha: 95 to 100%
[1]; [7]
  pest or weed control at 70 g/ha: 95 to 100%
  pest or weed control at 140 g/ha: 95 to 100%
[1]; [8]
  pest or weed control at 70 g/ha: 85 to 94%
  pest or weed control at 140 g/ha: 95 to 100%
[1]; [9]
  pest or weed control at 70 g/ha: 0 to 29%
  pest or weed control at 140 g/ha: 0 to 29%
[2]; [10]
  pest or weed control at 70 g/ha: 95 to 100%
  pest or weed control at 140 g/ha: 95 to 100%
[2]; [11]
  pest or weed control at 70 g/ha: 60 to 74%
  pest or weed control at 140 g/ha: 75 to 84%
[2]; [12]
  pest or weed control at 70 g/ha: 85 to 94%
  pest or weed control at 140 g/ha: 95 to 100%
[2]; [13]
  pest or weed control at 70 g/ha: 0 to 29%
  pest or weed control at 140 g/ha: 0 to 29%
[2]; [14]
  pest or weed control at 70 g/ha: 0 to 29%
  pest or weed control at 140 g/ha: 0 to 29%
[2]; [15]
  pest or weed control at 70 g/ha: 85 to 94%
  pest or weed control at 140 g/ha: 85 to 94%
[2]; [16]
  pest or weed control at 70 g/ha: 0 to 29%
  pest or weed control at 140 g/ha: 0 to 29%
[2]; [17]
  pest or weed control at 70 g/ha: 0 to 29%
  pest or weed control at 140 g/ha: 45 to 59%
